According to patent publication US20260191861A1, “INFLAMMASOME AND VEGF INHIBITION FOR RETINAL VASCULAR DISEASES” (University of Virginia Patent Foundation, priority 2022, published 2026):
“Also recorded” adds a separate entry of the source.

Key:
caspase-1 = assay: Rhegmatogenous retinal detachment (RRD) model: retinal caspase-1 cleavage by immunoblot; assay type: in vivo, mouse
Method: (§1) All experiments involving animals were approved by the University of Virginia Institutional Animal Care and Use Committee (IACUC) and adhered to the Association for Research in Vision and Ophthalmology (ARVO) Statement for the Use of Animals in Ophthalmic and Vision Research. Animal subjects were male and female mice aged 6 to 10 weeks. Wild type C57BL/6J mice were obtained from the Jackson Laboratory (Bar Harbor, ME, USA). To anesthetize mice for study procedures, ketamine hydrochloride (100 mg/kg; Ft. Dodge Animal Health, Overland Park, KS, USA) and xylazine (10 mg/kg; Phoenix Scientific, St. Joseph, MO, USA) were delivered by intraperitoneal (IP) injection. Pupils were dilated with topical 1% tropicamide and 2.5% phenylephrine (Alcon Laboratories, Ft. Worth, TX, USA).
(§2) RRD model was established by subretinal injection (SRI) of 3 μl 1% carboxymethyl cellulose (CMC; Refresh Liquigel, Allergan, Irvine, CA, USA).
(§3) NRTIs and K-9 were delivered via intraperitoneal (IP) injection in equimolar amounts. […] Kamuvudine K-9 (3-methyl-3TC, MW=273 g/mol) was administered either at a low dose (K-9L; 90 mg/kg daily) or a high dose (K-9H; 60 mg/kg twice daily, equimolar to NRTI doses). IP injection of phosphate buffered saline (PBS) was used as control.
Retinal tissue was extracted and lysed by sonication in radioimmunoprecipitation assay (RIPA) buffer (MilliporeSigma, Darmstadt, Germany). The Pierce BCA Protein Assay Kit (ThermoFisher Scientific, Waltham, MA, USA) was used to determine protein concentrations of interest. Samples were prepared that contained equal concentrations of total protein (10-100 μg). Protein samples were resolved by SDS-PAGE and transferred onto Immobilon-FL PVDF membranes (Millipore, Billerica, MA, USA). Membranes were blocked in Odyssey Blocking Buffer (PBS) for 1 hour at room temperature, and then incubated overnight with primary antibody at 4° C. Across study experiments, the following antibodies were used: anti-mouse caspase-1 (1:1000; AG-20B-0042; AdipoGen Life Sciences, San Diego, CA, USA), and anti-mouse GAPDH (1:1000; 2118; Cell Signaling, Danvers, MA, USA). […]

[1] = test system: photoreceptors (TUNEL+ cells in the ONL); assay: RRD model: TUNEL assay of the retinal outer nuclear layer; assay type: in vivo, mouse
Method: as §1, §2, §3
Retinal cross cryosections at a thickness of 10 μm were stained with TUNEL (TdT-mediated dUTP nick-end labeling) using the In Situ Cell Death Detection Kit (Roche Diagnostics, Indianapolis, IN, USA) according to the manufacturer's′ instructions. The sections were wet-mounted with ProLong anti-fade reagent with DAPI (P36935, ThermoFisher Scientific, Waltham, MA, USA) and visualized using an A1R laser confocal microscope (Nikon, Tokyo, Japan). Fourteen representative sections, including the optic nerve, were used per treatment group. To calculate the number of TUNEL+ cells in the outer nuclear layer (ONL), the retina analysis toolkit of ImageJ (2.1.0; NIH, Bethesda, MD, USA) was used.

[2] = test system: participants with diabetic macular edema; assay: Visual acuity (VALS) compared with synthetic controls from the DRCR.net Protocol T study (IPTW, propensity score matching, GEE); assay type: in vivo, human
Source text: The second analysis included participants from the lamivudine versus placebo trial, along with a synthetic comparator created using data from the DRCR.net Protocol T study. The source of the data is DRCR.net (2018) A Comparative Effectiveness Study of Intravitreal Aflibercept, Bevacizumab and Ranibizumab for Diabetic Macular Edema, retrieved from https://public.jaeb.org/drcrnet/stdy/download/206. The analyses, content, and conclusions presented herein are solely the responsibility of the authors and have not been reviewed or approved by DRCR.net.
Inclusion criteria for participants from the DRCR.net Protocol T study were based on their similarity to the lamivudine versus placebo trial design. This involved selecting only patients with type 2 diabetes, study eyes with a baseline VALS<69, and complete follow-up visual acuity measurements at weeks 4 and 8.
(§4) Propensity score methods were used to select DRCR.net Protocol T study participants similar to lamivudine-treated patients. Inverse probability treatment weights (IPTW) and propensity score matching were used. To estimate the IPTW weights, a multinomial logistic regression was used to estimate propensity scores using important predictors including baseline visual acuity and baseline central subfield thickness along with age, gender, and duration of diabetes. Weights were calculated as the reciprocal of the estimated propensity score of the actual treatment received. Weights were then truncated at the 99th percentile. For the propensity score matched analysis, lamivudine-treated patients were matched to each DRCR.net Protocol T treatment arm (aflibercept, bevacizumab, ranibizumab) and placebo group, separately. Due to the limited sample size for matching within each group, propensity score models included the most important predictors of acuity change including baseline visual acuity, age and duration of diabetes.
(§5) For the IPTW analysis, a mixed-effects weighted model was fit with subject-specific random effects. […] The model's estimates, confidence intervals (CI), and P values were reported for each predictor. Additionally, model-based contrasts were conducted to compare the change in VALS from baseline between lamivudine and the Protocol T treatments.
For each propensity score matched group (e.g., lamivudine-bevacizumab, lamivudine-aflibercept), a mixed effect model was fit estimating the change in visual acuity from baseline. Subject specific random effect was included along with fixed effect predictors: treatment group, baseline VALS, central subfield thickness, eye (left vs right), age, sex, race and type 2 diabetes duration.
(§6) Secondary outcomes included the change in central subfield thickness, the percentage of eyes with an improvement in VALS of 15 or more, the correlation between improvements in visual acuity and central subfield thickness, and systemic and ocular adverse events. Change in central subfield thickness was estimated using mixed-effects models, similar to the VALS analysis. To analyze a VALS improvement of at least 15 letters, logistic regression using generalized estimating equations (GEEs) was specified with an exchangeable correlation matrix. Model-based contrasts were estimated to make pairwise treatment comparisons.

[3] = test system: participants with diabetic macular edema; assay: Retinal central subfield thickness by spectral-domain OCT, including synthetic controls from DRCR.net Protocol T; assay type: in vivo, human; details: for IPTW mixed-effect model: change in central subfield thickness, Treatment × week [8] estimate / Mixed-effect model: change in central subfield thickness, Treatment × week [8] estimate: interaction term; for IPTW mixed-effect model: change in central subfield thickness from baseline, treatment estimate (ref = Placebo) / Mixed-effect model: change in central subfield thickness from baseline, treatment estimate (ref = Placebo): main effect (week 4); for Mixed-effect model: change in central subfield thickness, Treatment × week [8] estimate / Mixed-effect model: change in central subfield thickness from baseline, treatment estimate (ref = Placebo): unweighted model
Method: as §4, §5, §6
In all consultations, patients underwent tomography with the Spectralis device (Heidelberg) under mydriasis. The acquisition protocol was the 6×6 mm region centered on the fovea. Data analysis from SD-OCT was restricted to the central field (1 mm in diameter) Intravitreous Injection of Anti-VEGF

[4] = test system: participants with diabetic macular edema; details: week 8, included DRCR.net Protocol T patients (synthetic controls); cited from earlier work
[5] = test system: participants with diabetic macular edema; details: week 8, synthetic controls of DRCR.net Protocol T; cited from earlier work
[6] = day 3 RRD, equimolar IP doses twice daily (K-9H 60 mg/kg, 3TC 50 mg/kg)
[7] = three days after inducing RRD, IP treatment
[8] = IPTW model with synthetic controls
[9] = Original (unweighted) model with synthetic controls

Substance	degree of suppression of caspase-1 activation (caspase-1; [6]) [%+1%]	retinal cleaved caspase-1 compared with PBS-treated mice (caspase-1; [7])	degree of photoreceptor protection [1, 6] [%+7%]	number of TUNEL+ cells in the ONL of the retina compared with PBS-treatment [1, 7]	GEE model: odds ratio of change in VALS from baseline ≥15 (ref = Placebo) ([2]; IPTW model)	Mixed effect model: change from baseline visual acuity, treatment estimate (ref: Placebo) [2, 8]	Mixed effect model: change from baseline visual acuity, treatment estimate (ref: Placebo) ([2]; IPTW model with synthetic controls, listed as bevacizumab)	Mixed effect model: change from baseline visual acuity, treatment estimate (ref: Placebo) [2, 9]	GEE model: odds ratio of change in VALS from baseline ≥15 (ref = Placebo) ([2]; Original model)	IPTW mixed-effect model: change in central subfield thickness, Treatment × week [8] estimate [3] [μm]	IPTW mixed-effect model: change in central subfield thickness from baseline, treatment estimate (ref = Placebo) [3] [μm]	Mixed-effect model: change in central subfield thickness, Treatment × week [8] estimate [3] [μm]	Mixed-effect model: change in central subfield thickness from baseline, treatment estimate (ref = Placebo) [3] [μm]	percentage of eyes with improvement in VALS of 15 or more [4] [%]	percentage of eyes with VALS improvement of 15 or more that had minimal change in central subfield thickness (≤50 μm) [5] [%]	Mixed effect model: change from baseline visual acuity, treatment estimate (ref: Placebo) ([2]; IPTW model with synthetic controls, listed as aflibercept)	Mixed effect model: change from baseline visual acuity, treatment estimate (ref: Placebo) ([2]; IPTW model with synthetic controls, listed as ranibizumab)
3-methyl-3TC [K-9]	84	dose-dependent and complete reduction; also recorded: inhibits RRD-induced caspase-1 cleavage	56	dose-dependent reduction; also recorded: protects photoreceptors	–	–	–	–	–	–	–	–	–	–	–	–	–
Bevacizumab: inhibitor of vascular endothelial growth factor (VEGF), intravitreous	–	–	–	–	10.33	5.32	5.3	5.36	6.15	74.82	−66.35	84.87	−75.55	24	29	–	–
Aflibercept: inhibitor of vascular endothelial growth factor (VEGF), intravitreous	–	–	–	–	19.39	8.42	–	8.48	11.15	68.54	−104.33	74.83	−114.55	38	42	8.4	–
Ranibizumab: inhibitor of vascular endothelial growth factor (VEGF), intravitreous	–	–	–	–	19.96	7.12	–	7.04	11.14	75	−113.67	85.69	−122.12	34	41	–	7.1
